Laboratory results taken from article PMC8233378, “Acyclic nucleoside phosphonates with adenine nucleobase inhibit Trypanosoma brucei adenine phosphoribosyltransferase in vitro” (Scientific Reports, 2021).
Where a name gives a salt, the structure may show the parent alone. Read-outs that look alike come from different tables or passages of the source.

Columns and labels:
[1] = target: recombinant T. brucei APRT1 (Trypanosoma brucei brucei, UniProt Q57V32); test: Inhibition of recombinant APRT1, continuous spectrophotometric assay (adenine to AMP, 256 nm); assay type: biochemical; conditions: recombinant APRT1 280 nM, 1 mM PRib-PP, 60 μM adenine, pH 8.4, 25 °C
Chain of recombinant T. brucei APRT1 (Q57V32 entry or part of it): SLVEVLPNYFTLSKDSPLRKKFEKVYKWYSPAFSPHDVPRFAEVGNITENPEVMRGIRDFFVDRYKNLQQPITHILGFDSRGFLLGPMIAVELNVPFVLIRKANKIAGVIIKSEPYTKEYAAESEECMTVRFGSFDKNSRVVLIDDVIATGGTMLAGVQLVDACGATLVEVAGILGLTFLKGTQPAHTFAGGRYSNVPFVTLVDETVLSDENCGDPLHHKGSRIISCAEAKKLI
Text: To test if the newly synthesized ANPs with an adenine as a nucleobase can inhibit the activity of the APRT1 and APRT2, both enzymes were overexpressed in E. coli. […] First, we monitored the APRT1 enzyme activity by a continuous spectrophotometric assay measuring the conversion of adenine to AMP at 256 nm.
The T. brucei aprt1 and aprt2 genes were PCR amplified using oligonucleotides listed in Supplementary File S1, digested with BglII or BamHI and XhoI enzymes and ligated into the pSKB3 expression vector. The pSKB3 vector carries a 6 × His-tag and an AcTEV cleavage site upstream of BamHI restriction site. A BglII or BamHI restriction site was introduced at the 5′ end of the respective genes instead of the initiation methionine codon to maintain the 6 × His-tag and AcTEV recognition motif in frame with the genes. The verified plasmids were transformed into the BL21(DE3) E. coli cells. The 6xhis-tagged recombinant APRT1 protein was purified under native conditions using the ÄKTA prime plus instrument. Elution fractions were analyzed by SDS-PAGE, and those containing APRT1 were pooled and dialyzed against 50 mM Tris–HCl, pH 8.0, 150 mM NaCl, 5 mM MgCl2, 10% glycerol. Bradford protein assay (BioRad) was used to determine protein concentrations. The APRT1 recombinant protein was sent for antibody production to Davids Biotechnology (Regensburg, Germany). Recombinant APRT1 was subsequently used in all in vitro assays.
The methodology was adapted from Ref.[6]. Briefly, the enzyme kinetics of APRT1 were measured by a continuous spectrophotometric assay measuring the conversion of adenine to AMP, at 256 nm. The concentration of enzyme in the assay was 140 nM, the concentration of PRib-PP was kept at 1 mM and the adenine concentration varied from 3.75 to 60 μM. The reaction was carried out using a 1.0 cm path length with a UV Visible spectrometer 1601 (Shimadzu) in the reaction buffer (0.1 M Tris, pH 8.4; 0.11 M MgCl2; at 25 °C). The initial velocity (V0 [µM/min]) was calculated using Beer–Lambert law for different concentration of the purine substrate molecules: A = Δε × L × c where A is the measured absorbance, Δε is constant 2100 M^−1 cm^−1 for adenine, c is a concentration of the product formed in one minute (V0) and L is the length of a cuvette. The Km, Vmax and kcat values were calculated using GraphPad Prism 9 according to Michaelis–Menten kinetics. The Ki values of the inhibitors for APRT1 were determined in the same reaction buffer containing 1 mM PRib-PP, 60 μM adenine and 280 nM APRT1. The concentrations of inhibitors in the assay ranged from 1 nM to 100 μM, depending on the activity of the compound. The reaction was preceded by 1 min incubation of the respective enzyme with the given inhibitor. The Ki values were calculated using non-linear regression in GraphPad Prism 9.

T. brucei BSF427 = test: Alamar Blue assay, BSF427 cells; assay type: cell-based; conditions: Trypanosoma brucei, read-out: T. brucei BSF EC50
Experimental: The bloodstream form (BSF) T. b. brucei Lister 427 and single marker (SM) strains were cultivated in HMI-11 medium and 10% FBS at 37 °C in a humidified atmosphere at 5% CO2[26]. HMI-11 medium containing dialyzed 10% FBS and only one defined source of the purine base, adenine, was used for selected experiments (50 μM, HMI-11^adenine). The SM cell line constitutively expressing ectopic T7 RNA polymerase and tetracycline repressor was used for the tetracycline-inducible expression of dsRNA and V5-tagged proteins. To generate SKD APRT1 and DKD APRT1/2 RNAi cell lines, the 524 bp and 537 bp fragments of the aprt-I (Tb927.7.1780) and aprt-II (Tb927.7.1790) open reading frames, respectively, were PCR amplified from T. brucei BSF427 genomic DNA with the oligonucleotides (Supplementary File S1). The APRT1 fragment was cloned into the p2T7-TABlue, while the APRT2 fragment was cloned into, into the p2T7-177 plasmid. The p2T7-TABlue plasmid containing the APRT1 fragment was electroporated to SM cells which were subjected to selection with hygromycin (5 µg/ml). Verified SKD APRT1 cell line was then transfected with Not-1 linearized p2T7-177 plasmid containing the APRT2 fragment and the resulting DKD APRT1/2 cell line was selected with phleomycin (2.5 µg/ml). For the inducible expression of V5-tagged APRT1 andAPRT2, the coding sequences of the respective genes were PCR amplified using oligonucleotides listed in Supporting Information S1. The obtained PCR fragments were cloned into the pT7_N-term-V5 vector[6] using BglII or BamHI and XbaI restriction enzymes. Plasmids were then transfected to SM BSF cells. The resulting transfectants were established in medium containing puromycin (0.1 µg/ml). The induction of the dsRNA or tagged proteins was triggered by the addition of 1 µg/ml of tetracycline into the medium.
An Alamar Blue Assay was performed in a 96-well plate format to screen for sensitivity of T. brucei BSF cells to ANPs as previously published. The EC50 values were calculated using non-linear regression in GraphPad Prism 9.

[2] = Cytotoxicity of the prodrug in human cells (CellTiter-Glo 2.0), NHDF; assay type: cell-based; conditions: human, normal human dermal fibroblasts (NHDF), NHDF
Experimental: (§1) Compound cytotoxicity was evaluated in Hela S3 cancer cells and non-tumor human dermal fibroblasts (NHDF). All cell lines were obtained from ATCC (Manassas, VA, USA). The cytotoxicity was assayed using CellTiter-Glo® 2.0 detection reagent (Promega, Madison, USA) according to the manufacturer’s protocol.

[3] = Cytotoxicity of the prodrug in human cells (CellTiter-Glo 2.0), HeLa S3; assay type: cell-based; conditions: human, HeLa S3 cells; HeLa S3, 10 µM; read-out: Cytotoxicity of prodrug: HeLaS3 viability
Experimental: as §1

T. brucei BSF cells = test: Cell cycle analysis of treated trypanosomes (microscopy, flow cytometry with propidium iodide); assay type: cell-based, Trypanosoma brucei; conditions: for distribution of cell cycle stages by flow cytometry (DNA content): 1 to 16 µM, 12 h, propidium iodide
Text: The inhibition of the growth of T. brucei BSF in HMI-11 medium in single micromolar EC50 values (Table 1) was somewhat surprising considering the dispensability of APRT enzymes for these cells. […] To get deeper insights into the in vivo action of ANPs on APRT enzyme we tested their cytotoxicity on wild type cells grown in HMI-11^adenine medium. In this medium, the cells rely on the activity of the APRT enzyme to produce AMP and other […]. […] To corroborate this observation, we also tested cells with induced ectopic expression of V5-tagged APRT1 in both types of media and in the presence of the selected ANPs. […] The changes in the distribution of different cell cycle stages within a population were further assessed by flow cytometry assaying the DNA content by staining the cells with propidium iodide (Fig. 8A).
BFS trypanosomes in log phase were resuspended in HMI-11 medium to a density of 2 × 10^5 cells ml^−1. Test compounds at concentrations ranging from 1 to 16 µM were added to the cell suspension followed by 12 h incubation at 37 °C. The cell cycle analysis was performed as described previously. Briefly, approximately 2 × 10^6 cells were washed with PBS and fixed in 1 ml of 70% methanol in 1 × PBS and stored at 4 °C overnight. Following a PBS wash, samples were incubated with 10 µg/ml propidium iodide and 9.6 µg/ml of RNaseA at 37 °C for 45 min. Samples were analyzed on a FACS Canto II (BD) collecting 10,000 gated events.

[4] = BSF427, HMI-11^adenine medium (50 μM adenine as sole purine)

Structure (SMILES): Nc1ncnc2c1ncn2CCCSCP(=O)(O)O [3a, 5-(Adenin-9-yl)-2-thiapentanephosphonic acid, disodium salt]
- Ki ([1]; read-out: APRT1 Ki): 10.1 ± 1.1 µM

Structure (SMILES): Nc1ncnc2c1ncn2CCSCCP(=O)(O)O [3b, 5-(Adenin-9-yl)-3-thiapentanephosphonic acid, disodium salt]
- Ki ([1]; read-out: APRT1 Ki): > 30 µM

Structure (SMILES): Nc1ncnc2c1ncn2CCC[S+]([O-])CP(=O)(O)O (centres unmarked) [4a, 5-(Adenin-9-yl)-2-oxo-2-thiapentanephosphonic acid, disodium salt]
- Ki ([1]; read-out: APRT1 Ki): > 30 µM

Structure (SMILES): Nc1ncnc2c1ncn2CC[S+]([O-])CCP(=O)(O)O (centres unmarked) [4b, Sodium 5-(adenin-9-yl)-3-oxo-3-thiapentanephosphonate]
- Ki ([1]; APRT1 Ki): > 30 µM

Structure (SMILES): Nc1ncnc2c1ncn2CCN(CCNCCO)CCP(=O)(O)O [9a, 9-[(N-(2-((2-Hydroxyethyl)amino)ethyl)-N-(2-phosphonoethyl))-2-aminoethyl]adenine triethylammonium salt]
- Ki ([1]; read-out: APRT1 Ki): 4.92 ± 0.43 µM

Structure (SMILES): N#CCCN(CCn1cnc2c(N)ncnc21)CCP(=O)(O)O [9b, 9-[(N-(2-Cyanoethyl)-N-(2-phosphonoethyl))-2-aminoethyl]adenine]
- Ki ([1]; read-out: APRT1 Ki): > 30 µM

Structure (SMILES): Nc1ncnc2c1ncn2CCN(CCP(=O)(O)O)CCP(=O)(O)O [9c, 9-[(N,N-(Bis-2-phosphonoethyl))-2-aminoethyl]adenine]
- Ki ([1]; read-out: APRT1 Ki): > 30 µM

Structure (SMILES): Nc1ncnc2c1ncn2CCN(CCOCP(=O)(O)O)CCP(=O)(O)O [9d, 9-[(N-Phosphonoethyl-N-phosphonomethoxyethyl)-2-aminoethyl]adenine]
- Ki ([1]; read-out: APRT1 Ki): 3.88 ± 0.29 µM

Structure (SMILES): Nc1ncnc2c1ncn2CCN(CCCC(=O)O)CCP(=O)(O)O [9f, 9-[(N-(Carboxypropyl)-N-(2-phosphonoethyl))-2-aminoethyl]adenine]
- Ki ([1]; read-out: APRT1 Ki): > 30 µM

Structure (SMILES): Nc1ncnc2c1ncn2CCN(CCOCCP(=O)(O)O)CCP(=O)(O)O [9g, 9-[(N-Phosphonoethyl-N-phosphonoethoxyethyl)-2-aminoethyl]adenine]
- Ki ([1]; read-out: APRT1 Ki): 3.07 ± 0.25 µM

Structure (SMILES): CC(C)OC(=O)[C@H](Cc1ccccc1)NP(=O)(CSCCCn1cnc2c(N)ncnc21)N[C@@H](Cc1ccccc1)C(=O)OC(C)C [24a, 9-(5-(Bis((S-1-isopropoxycarbonyl-2-phenylethyl)amino)phosphoryl)-4-thiapentyl)adenine]
- EC50 (T. brucei BSF427; [4]): 6.36 µM
- EC50 (T. brucei BSF427; BSF427, HMI-11 medium): 6.16 µM
- viability at 10 µM [2]: 89%
- viability at 10 µM [3]: 99%
- direct microscopic observation of exposed T. brucei cells (T. brucei BSF cells): problems in the cell cycle
- distribution of cell cycle stages by flow cytometry (DNA content) (T. brucei BSF cells): increase in the number of cells in G1-phase

Structure (SMILES): CC(C)OC(=O)[C@H](Cc1ccccc1)NP(=O)(CCSCCn1cnc2c(N)ncnc21)N[C@@H](Cc1ccccc1)C(=O)OC(C)C [24b, 9-(5-(Bis((S-1-isopropoxycarbonyl-2-phenylethyl)amino)phosphoryl)-3-thiapentyl)adenine]
- EC50 (T. brucei BSF427; [4]): 6.16 µM
- EC50 (T. brucei BSF427; BSF427, HMI-11 medium): 6.36 µM
- viability at 10 µM [2]: 89%
- viability at 10 µM [3]: 98%
- direct microscopic observation of exposed T. brucei cells (T. brucei BSF cells): problems in the cell cycle
- distribution of cell cycle stages by flow cytometry (DNA content) (T. brucei BSF cells): increase in the number of cells in G1-phase

Structure (SMILES): Nc1ncnc2c1ncn2CCN(CCN(CCP(=O)(O)O)CCP(=O)(O)O)CCP(=O)(O)O [compound 17, (2-((2-((2-(Adenine-9-yl)ethyl)(2-phosphonoethyl)amino)ethyl)(2-phosphonoethyl)amino)ethyl)phosphonic acid]
- Ki ([1]; read-out: APRT1 Ki): 21.3 ± 2.1 µM

Structure (SMILES): Nc1ncnc2c1ncn2CC(COCCP(=O)(O)O)OCCP(=O)(O)O (centres unmarked) [compound 20, 4-(Adenin-9-ylmethyl)-3,6-dioxaoctane-1,8-diphosphonic acid]
- Ki ([1]; read-out: APRT1 Ki): 27.7 ± 4.5 µM

Structure (SMILES): Nc1ncnc2c1ncn2CCOC(CO)CP(=O)(O)O (centres unmarked) [compound 21, 9-[2-(3-Hydroxy-1-phosphonopropan-2-yloxy)ethyl]adenine]
- Ki ([1]; read-out: APRT1 Ki): > 30 µM

Structure (SMILES): Nc1ncnc2c1ncn2CC(COCP(=O)(O)O)COCP(=O)(O)O [compound 22, {[(2-[(Adenin-9-yl)methyl]propane-1,3-diyl)bis(oxy)]bis(methylene)}diphosphonic acid]
- Ki ([1]; read-out: APRT1 Ki): 5.15 ± 0.69 µM

Structure (SMILES): CCOC(=O)[C@H](Cc1ccccc1)NP(=O)(COCC(COCP(=O)(N[C@@H](Cc1ccccc1)C(=O)OCC)N[C@@H](Cc1ccccc1)C(=O)OCC)Cn1cnc2c(N)ncnc21)N[C@@H](Cc1ccccc1)C(=O)OCC [compound 25, Tetra-(L-phenylalanineethyl ester) prodrug of {[(2-[(adenin-9-yl)methyl]propane-1,3-diyl)bis(oxy)]bis(methylene)}diphosphonic acid]
- EC50 (T. brucei BSF427; BSF427, HMI-11 medium): 3.7 µM
- viability at 10 µM [2]: 90%
- viability at 10 µM [3]: 99%

Structure (SMILES): CCOC(=O)[C@H](Cc1ccccc1)NP(=O)(CCOCC(Cn1cnc2c(N)ncnc21)OCCP(=O)(N[C@@H](Cc1ccccc1)C(=O)OCC)N[C@@H](Cc1ccccc1)C(=O)OCC)N[C@@H](Cc1ccccc1)C(=O)OCC (stereo partly drawn) [compound 26, Tetra-(L-phenylalanineethyl ester) prodrug of (2-[3-(adenin-9-yl)-2-(2-bis(hydroxyphosphoryl)ethoxy)propoxy]ethyl}phosphonic acid]
- EC50 (T. brucei BSF427; BSF427, HMI-11 medium): 1.55 µM
- viability at 10 µM [2]: 88%
- viability at 10 µM [3]: 100%
